Measurements from patent publication US20230293526A1, “METHOD FOR TREATING CANCER WITH A REVERSE TRANSCRIPTASE INHIBITOR” (PrimeFour Therapeutics, Inc., priority 2020, published 2023).

Columns and labels:
Test in all cases: Cell proliferation Ex.3
Assay type in all cases: cell-based
22RV1 = conditions: Homo sapiens
Protocol: (§1) A dose response relationship on cell proliferation was assessed for Compound 13 on 140 tumor cell lines. […] Cells were cultured in the appropriate media. For the assays, cells were seeded in white cell culture-treated flat and clear bottom multiwell plates and incubated at 37° C. overnight before compound was added. […] on the medium, cell plates were equilibrated to room temperature for one hour, CellTiterGlo reagent (Promega) was added and luminescence was measured approximately an hour later using a luminometer. Raw data were converted into percent cell viability relative to the high and low control, which were set to 10000 and 000, respectively.

A204 = conditions: Homo sapiens
Protocol: as §1

A431 = conditions: Homo sapiens, A-431
Protocol: as §1

BXPC3 = conditions: Homo sapiens, BXPC-3
Protocol: as §1

CACO2 = conditions: Homo sapiens, Caco-2
Protocol: as §1

CAKI1 = conditions: Homo sapiens, CAKI-1
Protocol: as §1

CLS439 = tested on: CLS439
Protocol: as §1

EFO21 = conditions: Homo sapiens, EFO-21
Protocol: as §1

EJ28 = conditions: Homo sapiens, EJ-28
Protocol: as §1

HEK293 = conditions: Homo sapiens
Protocol: as §1

HEPG2 = conditions: Homo sapiens
Protocol: as §1

HS729 = tested on: HS729
Protocol: as §1

IGROV1 = conditions: Homo sapiens, IGROV-1
Protocol: as §1

IMR90 = conditions: Homo sapiens, IMR-90
Protocol: as §1

JAR = tested on: JAR
Protocol: as §1

MCF7 = conditions: Homo sapiens
Protocol: as §1

MDAMB436 = conditions: Homo sapiens, MDA-MB-436
Protocol: as §1

MIAPACA2 = conditions: Homo sapiens, MIA PaCa-2
Protocol: as §1

NCI-H23 = conditions: Homo sapiens
Protocol: as §1

OVCAR4 = conditions: Homo sapiens, OVCAR-4
Protocol: as §1

RD = conditions: Homo sapiens
Protocol: as §1

SF295 = conditions: Homo sapiens, SF-295
Protocol: as §1

SKHEP1 = conditions: Homo sapiens, SK-HEP1
Protocol: as §1

SKMEL5 = conditions: Homo sapiens, SK-MEL-5
Protocol: as §1

SKNAS = conditions: Homo sapiens, SK-N-AS
Protocol: as §1

WSU-NHL = conditions: Homo sapiens
Protocol: as §1

- IC50 (22RV1; 22Rv1, 72 h): 3.8 µM
- IC50 (22RV1; 22Rv1, 120 h): 3.28 µM
- IC50 (22RV1; 22Rv1, 168 h): 3.69 µM
- IC50 (A431; A431, 72 h): > 10 µM
- IC50 (A431; A431, 120 h): 3.18 µM
- IC50 (A431; A431, 168 h): 1.42 µM
- IC50 (BXPC3; BXPC3, 72 h): > 10 µM
- IC50 (BXPC3; BXPC3, 120 h): 1.29 µM
- IC50 (BXPC3; BXPC3, 168 h): 0.59 µM
- IC50 (CACO2; CACO2, 72 h): > 10 µM
- IC50 (CACO2; CACO2, 120 h): > 10 µM
- IC50 (CACO2; CACO2, 168 h): > 10 µM
- IC50 (HEPG2; HepG2, 72 h): > 10 µM
- IC50 (HEPG2; HepG2, 120 h): > 10 µM
- IC50 (HEPG2; HepG2, 168 h): > 10 µM
- IC50 (MCF7; MCF7, 72 h): > 10 µM
- IC50 (MCF7; MCF7, 120 h): > 10 µM
- IC50 (MCF7; MCF7, 168 h): > 10 µM
- IC50 (MDAMB436; MDAMB436, 72 h): > 10 µM
- IC50 (MDAMB436; MDAMB436, 120 h): > 10 µM
- IC50 (MDAMB436; MDAMB436, 168 h): > 10 µM
- IC50 (MIAPACA2; MIAPACA2, 72 h): > 10 µM
- IC50 (MIAPACA2; MIAPACA2, 120 h): > 10 µM
- IC50 (MIAPACA2; MIAPACA2, 168 h): > 10 µM
- IC50 (NCI-H23; NCI-H23, 72 h): > 10 µM
- IC50 (NCI-H23; NCI-H23, 120 h): > 10 µM
- IC50 (NCI-H23; NCI-H23, 168 h): > 10 µM
- IC50 (OVCAR4; OVCAR4, 72 h): > 10 µM
- IC50 (OVCAR4; OVCAR4, 120 h): > 10 µM
- IC50 (OVCAR4; OVCAR4, 168 h): > 10 µM
- IC50 (SKHEP1; SKHEP1, 72 h): > 10 µM
- IC50 (SKHEP1; SKHEP1, 120 h): > 10 µM
- IC50 (SKHEP1; SKHEP1, 168 h): > 10 µM
- IC50 (SKMEL5; SKMEL5, 72 h): > 10 µM
- IC50 (SKMEL5; SKMEL5, 120 h): > 10 µM
- IC50 (SKMEL5; SKMEL5, 168 h): > 10 µM
- IC50 (SKNAS; 72 h): > 10 µM
- IC50 (SKNAS; 120 h): > 10 µM
- IC50 (SKNAS; 168 h): > 10 µM
Compound: C#C[C@]1(CO)O[C@@H](n2cc(F)c(N)nc2=O)C[C@@H]1O [compound 9]
- IC50 (A204; A204, 72 h): > 10 µM
- IC50 (A204; A204, 120 h): > 10 µM
- IC50 (A204; A204, 168 h): > 10 µM
- IC50 (CAKI1; CAKI1, 72 h): > 10 µM
- IC50 (CAKI1; CAKI1, 120 h): > 10 µM
- IC50 (CAKI1; CAKI1, 168 h): > 10 µM
- IC50 (CLS439; CLS439, 72 h): > 10 µM
- IC50 (CLS439; CLS439, 120 h): > 10 µM
- IC50 (CLS439; CLS439, 168 h): > 10 µM
- IC50 (EFO21; EFO21, 72 h): > 10 µM
- IC50 (EFO21; EFO21, 120 h): > 10 µM
- IC50 (EFO21; EFO21, 168 h): > 10 µM
- IC50 (EJ28; EJ28, 72 h): > 10 µM
- IC50 (EJ28; EJ28, 120 h): > 10 µM
- IC50 (EJ28; EJ28, 168 h): > 10 µM
- IC50 (HEK293; HEK293, 72 h): > 10 µM
- IC50 (HEK293; HEK293, 120 h): > 10 µM
- IC50 (HEK293; HEK293, 168 h): > 10 µM
- IC50 (HS729; HS729, 72 h): > 10 µM
- IC50 (HS729; HS729, 120 h): > 10 µM
- IC50 (HS729; HS729, 168 h): > 10 µM
- IC50 (IGROV1; IGROV1, 72 h): > 10 µM
- IC50 (IGROV1; IGROV1, 120 h): > 10 µM
- IC50 (IGROV1; IGROV1, 168 h): > 10 µM
- IC50 (IMR90; IMR90, 72 h): > 10 µM
- IC50 (IMR90; IMR90, 120 h): > 10 µM
- IC50 (IMR90; IMR90, 168 h): > 10 µM
- IC50 (JAR; 72 h): > 10 µM
- IC50 (JAR; 120 h): > 10 µM
- IC50 (JAR; 168 h): > 10 µM
- IC50 (RD; 72 h): > 10 µM
- IC50 (RD; 120 h): > 10 µM
- IC50 (RD; 168 h): > 10 µM
- IC50 (SF295; SF295, 72 h): > 10 µM
- IC50 (SF295; SF295, 120 h): > 10 µM
- IC50 (SF295; SF295, 168 h): > 10 µM
- IC50 (WSU-NHL; 72 h): 3.01 µM
- IC50 (WSU-NHL; 120 h): 0.42 µM
- IC50 (WSU-NHL; 168 h): 0.87 µM
